From patent US10246444B2, “1,2-dithiolane and dithiol compounds useful in treating mutant EGFR-mediated diseases and conditions” (Sabila Biosciences LLC, priority 2017, dated 2019) come the findings set out here.

Experiment [1] concerns the target T1, EGFR (L858R) (Homo sapiens (Human), UniProt P00533, L858R). Nature of the experiment: KinaseSeeker rabbit reticulocyte lysate competition binding assay (IC50).
The target in a further experiment is EGFR WT (Homo sapiens (Human), UniProt P00533). The experiment is described as above.
The next experiment deals with EGFR E746-A750del (Homo sapiens (Human), UniProt P00533, DEL746-750). Nature of the experiment: KINOMEscan competition binding assay (Kd). The following applies: KINOMEscan binding constant; read-out: Kd Activity Level (EGFR E746-A750del).
A further experiment addresses HER2 (Homo sapiens (Human), UniProt P04626). Nature of the experiment: KinaseSeeker rabbit reticulocyte lysate competition binding assay (IC50).
In experiment [2] the target is T1, EGFR (L858R). Nature of the experiment: KINOMEscan competition binding assay (Kd). The settings on record: read-out: Kd Activity Level (EGFR L858R).
The next experiment has as its target EGFR L858R/T790M (Homo sapiens (Human), UniProt P00533, L858R/T790M). Nature of the experiment: KINOMEscan competition binding assay (Kd). The settings on record: KINOMEscan binding constant; read-out: Kd Activity Level (EGFR L858R/T790M).
For a further experiment, the target named is EGFR S752-I759del (Homo sapiens (Human), UniProt P00533, DEL752-759). Nature of the experiment: KINOMEscan competition binding assay (Kd). The settings on record: KINOMEscan binding constant; read-out: Kd Activity Level (EGFR S752-I759del).
In a further experiment the target is EGFR WT (wild type EGFR) (Homo sapiens (Human), UniProt P00533). Nature of the experiment: KINOMEscan competition binding assay (Kd). The following applies: read-out: Kd Activity Level (EGFR WT).
Where [3] appears, read: read-out: IC50 Activity level EGFR L858R, KinaseSeeker, Table 18.

Where two headings read alike, the source gives them in different places. Some results are limits rather than exact numbers.

Chain of EGFR E746-A750del (P00533 other isoform, or with tags, fused parts or gaps del E746-A750): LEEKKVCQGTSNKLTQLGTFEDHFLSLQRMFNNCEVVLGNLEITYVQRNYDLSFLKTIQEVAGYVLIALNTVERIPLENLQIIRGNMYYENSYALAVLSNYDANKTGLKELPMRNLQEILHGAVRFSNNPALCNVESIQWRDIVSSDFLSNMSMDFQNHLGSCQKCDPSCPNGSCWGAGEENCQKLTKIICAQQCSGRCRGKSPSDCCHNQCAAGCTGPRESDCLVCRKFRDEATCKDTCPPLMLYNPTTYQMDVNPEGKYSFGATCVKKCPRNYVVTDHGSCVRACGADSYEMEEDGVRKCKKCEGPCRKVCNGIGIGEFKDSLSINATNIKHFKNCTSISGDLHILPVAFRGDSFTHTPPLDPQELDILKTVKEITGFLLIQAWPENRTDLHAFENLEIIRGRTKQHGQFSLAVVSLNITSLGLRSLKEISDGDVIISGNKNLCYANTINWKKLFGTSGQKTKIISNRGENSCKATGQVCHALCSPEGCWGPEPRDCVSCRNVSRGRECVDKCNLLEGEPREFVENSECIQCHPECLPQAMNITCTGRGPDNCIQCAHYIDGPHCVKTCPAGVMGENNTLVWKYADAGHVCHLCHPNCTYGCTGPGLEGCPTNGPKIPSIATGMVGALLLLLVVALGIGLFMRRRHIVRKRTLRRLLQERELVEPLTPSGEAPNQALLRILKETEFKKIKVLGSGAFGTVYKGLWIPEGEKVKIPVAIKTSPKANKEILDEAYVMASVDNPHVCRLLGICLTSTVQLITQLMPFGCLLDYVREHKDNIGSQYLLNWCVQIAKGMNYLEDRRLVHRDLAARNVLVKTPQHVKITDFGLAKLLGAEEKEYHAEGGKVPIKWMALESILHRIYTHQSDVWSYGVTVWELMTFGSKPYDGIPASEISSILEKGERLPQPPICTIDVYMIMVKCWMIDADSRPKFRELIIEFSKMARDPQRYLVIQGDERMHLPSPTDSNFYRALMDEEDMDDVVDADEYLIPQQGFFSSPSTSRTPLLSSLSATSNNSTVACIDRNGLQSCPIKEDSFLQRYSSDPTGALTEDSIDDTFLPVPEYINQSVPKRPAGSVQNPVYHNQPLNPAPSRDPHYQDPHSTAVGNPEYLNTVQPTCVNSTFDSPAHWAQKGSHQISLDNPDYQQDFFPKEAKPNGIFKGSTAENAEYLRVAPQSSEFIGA
Chain of EGFR L858R/T790M (P00533 25-1210 T790M/L858R): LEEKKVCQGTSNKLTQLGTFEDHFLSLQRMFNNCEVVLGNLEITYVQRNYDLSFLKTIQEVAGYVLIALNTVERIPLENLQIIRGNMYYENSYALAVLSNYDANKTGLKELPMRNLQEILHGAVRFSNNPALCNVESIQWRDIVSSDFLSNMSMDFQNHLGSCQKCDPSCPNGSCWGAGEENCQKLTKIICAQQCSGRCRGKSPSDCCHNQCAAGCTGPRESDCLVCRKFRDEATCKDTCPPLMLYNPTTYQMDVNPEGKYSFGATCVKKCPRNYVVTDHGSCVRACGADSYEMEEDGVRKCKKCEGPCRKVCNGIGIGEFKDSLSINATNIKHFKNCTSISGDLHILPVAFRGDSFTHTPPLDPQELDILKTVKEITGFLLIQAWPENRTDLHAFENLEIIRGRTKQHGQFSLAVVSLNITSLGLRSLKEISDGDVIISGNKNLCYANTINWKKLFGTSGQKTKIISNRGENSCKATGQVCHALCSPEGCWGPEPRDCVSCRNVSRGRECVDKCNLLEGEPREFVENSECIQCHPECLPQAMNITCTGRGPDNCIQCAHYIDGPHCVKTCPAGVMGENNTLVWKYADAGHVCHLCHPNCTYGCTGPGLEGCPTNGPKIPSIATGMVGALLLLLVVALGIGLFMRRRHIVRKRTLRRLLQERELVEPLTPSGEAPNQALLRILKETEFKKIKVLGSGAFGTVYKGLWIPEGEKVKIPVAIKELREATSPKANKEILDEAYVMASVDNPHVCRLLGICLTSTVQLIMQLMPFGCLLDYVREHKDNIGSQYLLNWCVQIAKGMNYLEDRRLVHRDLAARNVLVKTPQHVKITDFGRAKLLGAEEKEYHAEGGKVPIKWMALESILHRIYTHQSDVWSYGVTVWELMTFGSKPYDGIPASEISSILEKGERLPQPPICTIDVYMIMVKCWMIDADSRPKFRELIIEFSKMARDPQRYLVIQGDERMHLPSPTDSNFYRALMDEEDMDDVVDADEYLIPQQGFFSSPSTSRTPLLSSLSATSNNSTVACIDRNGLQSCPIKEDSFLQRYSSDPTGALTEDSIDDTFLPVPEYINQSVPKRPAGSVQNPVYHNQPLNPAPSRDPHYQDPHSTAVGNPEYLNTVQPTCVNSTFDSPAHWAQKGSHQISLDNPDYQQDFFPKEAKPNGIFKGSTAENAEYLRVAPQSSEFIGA
Chain of HER2 (P04626 23-1255): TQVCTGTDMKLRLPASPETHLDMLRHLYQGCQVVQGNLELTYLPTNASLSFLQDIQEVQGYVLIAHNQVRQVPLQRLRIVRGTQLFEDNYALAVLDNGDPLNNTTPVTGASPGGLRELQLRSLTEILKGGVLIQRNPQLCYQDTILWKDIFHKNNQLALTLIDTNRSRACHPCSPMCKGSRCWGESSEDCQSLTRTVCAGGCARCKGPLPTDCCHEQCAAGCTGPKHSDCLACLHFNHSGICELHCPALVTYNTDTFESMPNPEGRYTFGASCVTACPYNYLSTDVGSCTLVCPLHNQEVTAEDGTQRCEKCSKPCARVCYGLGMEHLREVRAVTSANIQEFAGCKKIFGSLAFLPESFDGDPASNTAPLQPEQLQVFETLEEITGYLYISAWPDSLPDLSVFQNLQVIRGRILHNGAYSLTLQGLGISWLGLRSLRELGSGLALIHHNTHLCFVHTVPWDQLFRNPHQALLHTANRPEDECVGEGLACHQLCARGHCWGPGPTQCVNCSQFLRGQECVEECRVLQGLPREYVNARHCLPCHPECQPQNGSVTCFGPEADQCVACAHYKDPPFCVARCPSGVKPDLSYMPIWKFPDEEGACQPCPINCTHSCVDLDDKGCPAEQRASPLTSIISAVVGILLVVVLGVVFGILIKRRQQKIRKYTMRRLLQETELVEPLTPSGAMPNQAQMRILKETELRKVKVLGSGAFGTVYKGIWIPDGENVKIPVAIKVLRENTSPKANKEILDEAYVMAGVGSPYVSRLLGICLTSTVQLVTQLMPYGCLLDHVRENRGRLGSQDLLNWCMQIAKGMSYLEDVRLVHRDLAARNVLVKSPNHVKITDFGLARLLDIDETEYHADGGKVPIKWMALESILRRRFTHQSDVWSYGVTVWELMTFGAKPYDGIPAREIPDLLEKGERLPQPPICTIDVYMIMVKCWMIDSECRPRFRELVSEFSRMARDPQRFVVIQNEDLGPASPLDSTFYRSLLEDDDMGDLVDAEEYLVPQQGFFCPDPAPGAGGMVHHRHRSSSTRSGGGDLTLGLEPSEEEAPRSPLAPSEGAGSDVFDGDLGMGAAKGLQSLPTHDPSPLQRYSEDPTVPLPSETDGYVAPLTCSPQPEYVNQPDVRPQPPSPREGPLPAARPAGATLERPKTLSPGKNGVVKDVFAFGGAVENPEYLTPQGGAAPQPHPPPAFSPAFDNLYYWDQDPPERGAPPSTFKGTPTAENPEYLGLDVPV
Chain of EGFR S752-I759del (P00533 other isoform, or with tags, fused parts or gaps del 1-668/del 752-759/del 1012-1210 limits assumed): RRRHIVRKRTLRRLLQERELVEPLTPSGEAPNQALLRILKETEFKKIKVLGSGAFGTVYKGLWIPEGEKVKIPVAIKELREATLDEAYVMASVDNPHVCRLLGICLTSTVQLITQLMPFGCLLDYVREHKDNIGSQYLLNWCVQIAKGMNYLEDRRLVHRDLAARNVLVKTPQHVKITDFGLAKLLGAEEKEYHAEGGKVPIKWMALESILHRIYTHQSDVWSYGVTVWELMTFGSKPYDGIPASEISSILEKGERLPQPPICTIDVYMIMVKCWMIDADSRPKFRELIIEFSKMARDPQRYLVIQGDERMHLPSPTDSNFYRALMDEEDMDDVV
T1 sequence (P00533 25-1210 L858R): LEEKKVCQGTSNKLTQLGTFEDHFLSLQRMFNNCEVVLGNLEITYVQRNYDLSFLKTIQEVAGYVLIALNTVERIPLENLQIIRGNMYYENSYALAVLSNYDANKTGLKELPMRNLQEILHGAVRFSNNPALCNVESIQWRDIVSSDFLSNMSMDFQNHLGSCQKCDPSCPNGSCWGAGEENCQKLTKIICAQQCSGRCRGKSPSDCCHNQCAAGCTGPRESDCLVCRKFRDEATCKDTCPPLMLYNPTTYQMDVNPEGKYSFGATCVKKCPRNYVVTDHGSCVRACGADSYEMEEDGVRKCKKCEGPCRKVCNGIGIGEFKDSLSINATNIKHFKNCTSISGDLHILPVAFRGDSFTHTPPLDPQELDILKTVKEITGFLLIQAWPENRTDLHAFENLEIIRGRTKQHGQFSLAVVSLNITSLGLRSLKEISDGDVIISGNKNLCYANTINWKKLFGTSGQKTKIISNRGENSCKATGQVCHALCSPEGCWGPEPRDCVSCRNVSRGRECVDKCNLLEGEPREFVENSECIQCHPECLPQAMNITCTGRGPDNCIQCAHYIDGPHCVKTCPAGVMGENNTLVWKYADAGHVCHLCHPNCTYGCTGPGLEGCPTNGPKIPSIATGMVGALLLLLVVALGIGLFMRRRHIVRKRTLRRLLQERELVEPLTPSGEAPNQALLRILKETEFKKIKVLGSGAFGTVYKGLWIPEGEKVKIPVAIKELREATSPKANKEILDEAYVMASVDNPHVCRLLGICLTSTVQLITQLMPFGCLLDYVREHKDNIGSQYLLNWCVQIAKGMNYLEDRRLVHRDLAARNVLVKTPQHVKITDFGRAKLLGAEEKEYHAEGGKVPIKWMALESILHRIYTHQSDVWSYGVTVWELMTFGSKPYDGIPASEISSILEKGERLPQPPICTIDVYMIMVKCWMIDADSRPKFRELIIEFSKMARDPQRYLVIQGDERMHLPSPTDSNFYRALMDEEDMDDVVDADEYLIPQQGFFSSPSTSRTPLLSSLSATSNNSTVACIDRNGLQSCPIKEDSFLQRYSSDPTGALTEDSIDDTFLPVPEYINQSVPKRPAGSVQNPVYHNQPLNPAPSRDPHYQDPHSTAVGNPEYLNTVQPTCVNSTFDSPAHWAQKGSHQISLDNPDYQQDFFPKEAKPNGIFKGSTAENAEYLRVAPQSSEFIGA

One may read the IC50 as the concentration needed to halve the response being measured. In the case of `CC(=O)SCC(CSC(C)=O)C(=O)Nc1ccc2ncc(C#N)c(Nc3ccc(OCc4cccc(F)c4)c(Cl)c3)c2c1` [Example 60, S,S′-(2-((4-((3-Chloro-4-((3-fluorobenzyl)oxy)phenyl)amino)-3-cyanoquinolin-6-yl)carbamoyl)propane-1,3-diyl)diethanethioate], the IC50 was in the range of 1 to 99 nM on EGFR (L858R) [1] and 100 to 999 nM at EGFR WT.

Turning to `N#Cc1cnc2cc(OC[C@@H](O)CO)c(NC(=O)C[C@@H]3CCSS3)cc2c1Nc1ccc(OCc2cccc(F)c2)c(Cl)c1` [Example 85, N-(4-((3-Chloro-4-((3-fluorobenzyl)oxy)phenyl)amino)-3-cyano-7-((S)-2,3-dihydroxypropoxy)quinolin-6-yl)-2-(1,2-dithiolan-3R-yl)acetamide], the Kd is 1 to 99 nM at EGFR E746-A750del; 1 to 99 nM on EGFR (L858R) [2]; over 10000 nM at EGFR L858R/T790M; 1 to 99 nM on EGFR S752-I759del; 1 to 99 nM at EGFR WT (wild type EGFR). The IC50 on HER2 was 100 to 999 nM; on EGFR (L858R) [1] it was 1 to 99 nM; at EGFR WT it was 100 to 999 nM.

With `CCOc1cc2ncc(C#N)c(Nc3ccc(F)c(Cl)c3)c2cc1NC(=O)C1CSSC1` [Example 31, N-(4-((3-Chloro-4-fluorophenyl)amino)-3-cyano-7-ethoxyquinolin-6-yl)-1,2-dithiolane-4-carboxamide], the IC50 on HER2, on EGFR (L858R) [1] and on EGFR WT was 100 to 999 nM in each case.

In the case of `CCOc1cc2ncc(C#N)c(Nc3ccc(OCc4cccc(F)c4)c(Cl)c3)c2cc1NC(=O)C(CSC(C)=O)CSC(C)=O` [Example 34], the Kd is 100 to 999 nM on EGFR E746-A750del; 1 to 99 nM at EGFR (L858R) [2]; over 10000 nM on EGFR L858R/T790M; 100 to 999 nM at EGFR S752-I759del; 1 to 99 nM at EGFR WT (wild type EGFR). For the same molecule, the IC50 at HER2 lay within 100 to 999 nM; on EGFR (L858R) [1] it was 1 to 99 nM; at EGFR WT, 100 to 999 nM.

For the molecule `CCOc1cc2ncc(C#N)c(Nc3ccc(OCc4cccc(F)c4)c(Cl)c3)c2cc1NC(=O)C1CSSC1` [Example 36, N-(4-((3-Chloro-4-((3-fluorobenzyl)oxy)phenyl)amino)-3-cyano-7-ethoxyquinolin-6-yl)-1,2-dithiolane-4-carboxamide], the Kd is 1 to 99 nM at EGFR E746-A750del; 1 to 99 nM on EGFR (L858R) [2]; over 10000 nM on EGFR L858R/T790M; 1 to 99 nM on EGFR S752-I759del; 1 to 99 nM on EGFR WT (wild type EGFR). The IC50 on HER2 was in the range of 100 to 999 nM; at EGFR (L858R) [1], 1 to 99 nM; at EGFR WT it was 100 to 999 nM.

Turning to `CC1(C)OC[C@H](COc2cc3ncc(C#N)c(Nc4ccc(OCc5cccc(F)c5)c(Cl)c4)c3cc2NC(=O)CC2CCSS2)O1` (single isomer, unassigned; isomer 2) [84 isomer 2], the Kd on EGFR (L858R) [2] and on EGFR WT (wild type EGFR) was 1 to 99 nM in each case.

For `COc1cc2ncnc(Nc3ccc(OCc4cccc(F)c4)c(Cl)c3)c2cc1NC(=O)C(CSC(C)=O)CSC(C)=O` [Example 109, S,S′-(2-((4-((3-Chloro-4-((3-fluorobenzyl)oxy)phenyl)amino)-7-methoxyquinazolin-6-yl)carbamoyl)propane-1,3-diyl)diethanethioate], the IC50 at EGFR (L858R) [1] and at EGFR WT was 1 to 99 nM each time.

On EGFR (L858R) [1], `CCOc1cc2ncc(C#N)c(Nc3ccc(F)c(Cl)c3)c2cc1NC(=O)CC(CCSCc1ccccc1)SCc1ccccc1` (stereo not drawn) [Example 38, 3,5-Bis(benzylthio)-N-(4-((3-chloro-4-fluorophenyl)amino)-3-cyano-7-ethoxyquinolin-6-yl)pentanamide] came in with an IC50 of 1000 to 10000 nM.

With `CC(=O)SCC(CSC(C)=O)C(=O)Nc1cc2c(Nc3ccc(OCc4cccc(F)c4)c(Cl)c3)c(C#N)cnc2cc1OC[C@H](O)CO` [Example 94, (R)—S,S′-(2-((4-((3-Chloro-4-((3-fluorobenzyl)oxy)phenyl)amino)-3-cyano-7-(2,3-dihydroxypropoxy)quinolin-6-yl)carbamoyl)propane-1,3-diyl)diethanethioate], the Kd at EGFR (L858R) [2] and at EGFR WT (wild type EGFR) was 1 to 99 nM each time.

As to `CC1(C)OC[C@H](COc2cc3ncc(C#N)c(Nc4ccc(OCc5cccc(F)c5)c(Cl)c4)c3cc2NC(=O)CC2CCSS2)O1` (stereo partly drawn) [Example 79, N-(4-((3-Chloro-4-((3-fluorobenzyl)oxy)phenyl)amino)-3-cyano-7-(((S)-2,2-dimethyl-1,3-dioxolan-4-yl)methoxy)quinolin-6-yl)-2-(1,2-dithiolan-3-yl)acetamide], the Kd on EGFR (L858R) [2] and on EGFR WT (wild type EGFR) was 1 to 99 nM each time.

Regarding `CC1(C)OC[C@H](COc2cc3ncc(C#N)c(Nc4ccc(OCc5cccc(F)c5)c(Cl)c4)c3cc2NC(=O)C[C@@H]2CCSS2)O1` (single isomer, unassigned; isomer 1) [80 isomer 1], the Kd on EGFR (L858R) [2] and at EGFR WT (wild type EGFR) was 1 to 99 nM throughout.

In the case of `Cc1ccc(Oc2ccc(Nc3c(C#N)cnc4ccc(NC(=O)CC5CCSS5)cc34)cc2C)cn1` (stereo not drawn) [Example 55, N-(3-Cyano-4-((3-methyl-4-((6-methylpyridin-3-yl)oxy)phenyl)amino)quinolin-6-yl)-2-(1,2-dithiolan-3-yl)acetamide], the 50% inhibitory concentration (IC50) on HER2 (read-out: IC50 Activity level HER2, KinaseSeeker, Table 18) is over 10000 nM; on EGFR (L858R) [1] (setting [3]) it was over 10000 nM; at EGFR WT (read-out: IC50 Activity level EGFR WT, KinaseSeeker, Table 18) it was over 10000 nM.

Consider `N#Cc1cnc2cc(OC[C@H](O)CO)c(NC(=O)C[C@H]3CCSS3)cc2c1Nc1ccc(OCc2cccc(F)c2)c(Cl)c1` [Example 81, N-(4-((3-Chloro-4-((3-fluorobenzyl)oxy)phenyl)amino)-3-cyano-7-((R)-2,3-dihydroxypropoxy)quinolin-6-yl)-2-(1,2-dithiolan-3S-yl) acetamide], for which the Kd at EGFR E746-A750del was 1 to 99 nM; at EGFR (L858R) [2] it was 1 to 99 nM; on EGFR L858R/T790M it was over 10000 nM; on EGFR S752-I759del it was 1 to 99 nM; at EGFR WT (wild type EGFR), 1 to 99 nM. Besides, the values for the IC50 at HER2, on EGFR (L858R) [1] and on EGFR WT were 100 to 999 nM, 1 to 99 nM and 100 to 999 nM, respectively.

The molecule `CCOc1cc2ncc(C#N)c(Nc3ccc(F)c(Cl)c3)c2cc1NC(=O)CC1CCSS1` (stereo not drawn) [Example 39, N-(4-((3-Chloro-4-fluorophenyl)amino)-3-cyano-7-ethoxyquinolin-6-yl)-2-(1,2-dithiolan-3-yl)acetamide] displayed an IC50 at EGFR (L858R) [1] of 100 to 999 nM.

For the molecule `COc1cc2ncnc(Nc3ccc(Oc4ccc(C)nc4)c(C)c3)c2cc1NC(=O)C1CSSC1` [Example 104, N-(7-Methoxy-4-((3-methyl-4-((6-methylpyridin-3-yl)oxy)phenyl)amino)quinazolin-6-yl)-1,2-dithiolane-4-carboxamide], the IC50 at HER2, at EGFR (L858R) [1] and at EGFR WT was 100 to 999 nM throughout.

Take `CC1(C)OC[C@H](COc2cc3ncc(C#N)c(Nc4ccc(OCc5cccc(F)c5)c(Cl)c4)c3cc2NC(=O)C[C@H]2CCSS2)O1` (single isomer, unassigned; isomer 2) [80 isomer 2]: the Kd at EGFR (L858R) [2] and at EGFR WT (wild type EGFR) was 1 to 99 nM throughout.

As to `CC1(C)OC[C@@H](COc2cc3ncc(C#N)c(Nc4ccc(OCc5cccc(F)c5)c(Cl)c4)c3cc2NC(=O)CC2CCSS2)O1` (single isomer, unassigned; isomer 1) [84 isomer 1], the Kd at EGFR (L858R) [2] and at EGFR WT (wild type EGFR) was 1 to 99 nM in each case.

`CCOc1cc2ncc(C#N)c(Nc3ccc(F)c(Cl)c3)c2cc1NC(=O)C1CCSS1` (stereo not drawn) [Example 33, N-(4-((3-Chloro-4-fluorophenyl)amino)-3-cyano-7-ethoxyquinolin-6-yl)-1,2-dithiolane-3-carboxamide]: the Kd at EGFR (L858R) [2] and at EGFR WT (wild type EGFR) was 1 to 99 nM each time. This molecule returned an IC50 on EGFR (L858R) [1] of 1 to 99 nM.

With `CC(=O)Nc1ccc2ncc(C#N)c(Nc3ccc(OCc4cccc(F)c4)c(Cl)c3)c2c1` [Example 58, N-(4-((3-Chloro-4-((3-fluorobenzyl)oxy)phenyl)amino)-3-cyanoquinolin-6-yl)acetamide], the IC50 at EGFR (L858R) [1] (setting [3]) was over 10000 nM.

In the case of `CCOc1cc2ncc(C#N)c(Nc3ccc(F)c(Cl)c3)c2cc1NC(=O)CCCCC1CCSS1` (stereo not drawn) [Example 42, N-(4-(3-Chloro-4-fluorophenylamino)-3-cyano-7-ethoxyquinolin-6-yl)-5-(1,2-dithiolan-3-yl)pentanamide], the half-inhibitory concentration (IC50) at HER2, on EGFR (L858R) [1] and at EGFR WT was 100 to 999 nM throughout.

For `COc1cc2ncnc(Nc3ccc(OCc4cccc(F)c4)c(Cl)c3)c2cc1NC(=O)C1CSSC1` [Example 110, N-(4-((3-Chloro-4-((3-fluorobenzyl)oxy)phenyl)amino)-7-methoxyquinazolin-6-yl)-1,2-dithiolane-4-carboxamide], the IC50 at EGFR (L858R) [1] and at EGFR WT was 1 to 99 nM throughout.

`CCOc1cc2ncc(C#N)c(Nc3ccc(OCc4cccc(F)c4)c(Cl)c3)c2cc1NC(=O)CCCCC1CCSS1` (stereo not drawn) [Example 44] returned an IC50 on EGFR (L858R) [1] of 1 to 99 nM.
